Data: ChEMBL document CHEMBL4627248, “Emerging small-molecule therapeutic approaches for amyotrophic lateral sclerosis and frontotemporal dementia” (Bioorg Med Chem Lett, 2020)

Each molecule was assayed against T1, TAR DNA-binding protein 43 (Homo sapiens, UniProt Q13148) (assay: Inhibition of TDP-43 (unknown origin) binding to RNA).
T1 sequence (Q13148 whole entry): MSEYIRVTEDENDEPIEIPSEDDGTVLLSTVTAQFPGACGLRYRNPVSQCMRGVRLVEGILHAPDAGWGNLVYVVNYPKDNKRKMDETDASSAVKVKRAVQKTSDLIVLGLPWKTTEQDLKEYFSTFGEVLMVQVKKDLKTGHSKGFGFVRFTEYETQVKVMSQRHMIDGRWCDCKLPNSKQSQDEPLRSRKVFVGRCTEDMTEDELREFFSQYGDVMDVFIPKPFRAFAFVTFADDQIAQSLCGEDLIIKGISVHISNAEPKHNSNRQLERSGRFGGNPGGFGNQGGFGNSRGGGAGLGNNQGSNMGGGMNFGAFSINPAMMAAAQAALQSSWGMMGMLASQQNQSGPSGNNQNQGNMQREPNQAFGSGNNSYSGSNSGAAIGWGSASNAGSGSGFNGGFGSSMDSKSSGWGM

Compound | IC50 [µM]
O=C1c2c(O)ccc(O)c2C(=O)c2c(NCCNCCO)ccc(NCCNCCO)c21 [MITOXANTRONE] | 10
COc1cc(NC(=O)CCC2CCCN(Cc3ccc(F)c(OC)c3)C2)cc(OC)c1 (stereo not given) | 0.1
CCc1cccc(C)c1NS(=O)(=O)c1cnccc1C(=O)N1CCCC1 | > 0.1

The remaining lines, values ahead:

IC50 [µM] | Compound
20 | NC(=O)CCCCC1CCSS1 (racemic) [THIOCTIC ACID AMIDE]
20 | O=C(O)CCCC[C@@H]1CCSS1 [THIOCTIC ACID]

Each molecule was assayed against T1, TAR DNA-binding protein 43 (assay: Binding affinity to TDP-43 (unknown origin)).

Kd [µM] | Compound
89 | NC(=O)c1cncc(N2CCCC(CO)(Cc3ccc(F)cc3)C2)n1 (stereo not given)

These molecules were tested against (G4C2)8 hairpin RNA (assay: Binding affinity to (G4C2)8 hairpin RNA (unknown origin) by TO-PRO-1 dye displacement assay).

Compound | Kd [µM]
N=C(N)c1ccc(Nc2ccc(-c3cc4ccc(C(=N)N)cc4[nH]3)cc2)cc1 | 10
CCN(CC)CC[n+]1ccc2c(C)c3[nH]c4ccc(O)cc4c3c(C)c2c1 | 1.4

More lines, now with the values ahead:

Kd [µM] | Compound
0.9 | Cc1c2cc[n+](C)cc2c(C)c2c1[nH]c1ccc(O)cc12
16 | CCN(CC)CCNC(=O)c1cc2cc(NC(=O)c3cc4cc(N)ccc4[nH]3)ccc2[nH]1
